# Test system: NF-κB mediated transcription
# Experiment: NF-κB driven β-lactamase reporter assay in ECV-304 NF-κB.βlaZ cells (AURORA CCF2 fluorescence)
# Assay type: cell-based, human
# Conditions: 10 μM compound; ECV-304 NF-κB.βlaZ cells stimulated with 10 ng/mL TNF-α or 100 pg/mL IL-1β, 6 hours at 37° C.; inhibition of maximum blue/green ratio
# Procedure, shortened: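 Blue/green (460/530 nm, excitation 395 nm) CCF2 emission ratio quantified NF-κB-driven β-lactamase expression in the stably transfected endothelial-like ECV-304 clone 1E8.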
row,Compound,Percent Inhibition at 10 μM
1,"[2-(2,4,6-Triisopropyl-phenyl)-acetyl]-sulfamic acid 4-(benzylamino-methyl)-2,6-diisopropyl-phenyl ester; compound with generic inorganic neutral component [Example 229]",75.79%

# Same assay, conditions: 10 μM compound; ECV-304 NF-κB.βlaZ cells stimulated with 10 ng/mL TNF-α or 100 pg/mL IL-1β, 6 hours at 37° C.; inhibition of maximum blue/green ratio; 10 µM
row,Compound,Percent Inhibition at 10 μM
1,"CCCCCCCCCCCCOC(=O)NS(=O)(=O)Nc1c(C(C)C)cccc1C(C)C [Example 250, Carbamic acid, [[[2,6-bis(1-methylethyl)phenyl]amino]sulfonyl]-, dodecyl ester]",<10%

# Same assay, conditions: Homo sapiens, ECV-304, 6 h, 10 μM compound; ECV-304 NF-κB.βlaZ cells stimulated with 10 ng/mL TNF-α or 100 pg/mL IL-1β, 6 hours at 37° C.; inhibition of maximum blue/green ratio; read-out: Percent Inhibition at 10 μM
row,Compound,inhibition at 10 µM
1,"CC(C)c1cc(C(C)C)c(CC(=O)NS(=O)(=O)Oc2c(C(C)C)cc(NC(=O)CCN)cc2C(C)C)c(C(C)C)c1 [Example 220, [2-(2,4,6-Triisopropyl-phenyl)-acetyl]-sulfamic acid 4-(3-amino-propionylamino)-2,6-diisopropyl-phenyl ester; compound with trifluoro-acetic acid]",65.5%
2,"CC(C)c1cccc(C(C)C)c1OS(=O)(=O)NC(=O)N1CCc2ccccc21 [Example 222, (2,3-Dihydro-indole-1-carbonyl)-sulfamic acid 2,6-diisopropyl-phenyl ester]",< 10%
3,"CC(C)c1cccc(C(C)C)c1OS(=O)(=O)NC(=O)NC(c1ccccc1)(c1ccccc1)c1ccccc1 [Example 223, Sulfamic acid, [[(triphenylmethyl)amino]carbonyl]-, 2,6-bis(1-methylethyl)phenyl ester]",68.2%
4,"CC(C)c1cc(C(C)C)c(CC(=O)NS(=O)(=O)Oc2c(C(C)C)cc(C=CC#N)cc2C(C)C)c(C(C)C)c1 [Example 224, [(2,4,6-Triisopropyl-phenyl)-acetyl]-sulfamic acid 4-(2-cyano-vinyl)-2,6-diisopropyl-phenyl ester]",< 10%
5,"CC(C)c1cc(C(C)C)c(CC(=O)NS(=O)(=O)Oc2c(C(C)C)cc(NS(=O)(=O)c3cccs3)cc2C(C)C)c(C(C)C)c1 [Example 225, [(2,4,6-Triisopropyl-phenyl)-acetyl]-sulfamic acid 2,6-diisopropyl-4-(thiophene-2-sulfonylamino)-phenyl ester]",26.4%
6,"CC(C)c1cc(C(C)C)c(CC(=O)NS(=O)(=O)Oc2c(C(C)C)cc(NS(=O)(=O)c3cccc4c(N(C)C)cccc34)cc2C(C)C)c(C(C)C)c1 [Example 226, [(2,4,6-Triisopropyl-phenyl)-acetyl]-sulfamic acid 4-(5-dimethylamino-naphthalene-1-sulfonylamino)-2,6-diisopropyl-phenyl ester]",46.3%
7,"CC(C)c1cc(C(C)C)c(CC(=O)NS(=O)(=O)Oc2c(C(C)C)cc(NS(C)(=O)=O)cc2C(C)C)c(C(C)C)c1 [Example 227, [(2,4,6-Triisopropyl-phenyl)-acetyl]-sulfamic acid 2,6-diisopropyl-4-methanesulfonylamino-phenyl ester]",77.3%
8,"COC(=O)c1cc(C(C)C)c(OS(=O)(=O)NC(=O)Cc2c(C(C)C)cc(C(C)C)cc2C(C)C)c(C(C)C)c1 [Example 228, 3,5-Diisopropyl-4-{[(2,4,6-triisopropyl-phenyl)-acetyl]sulfamoyloxy}-benzoic acid methyl ester]",76.1%
9,"CC(C)c1cc(C(C)C)c(CC(=O)NS(=O)(=O)Oc2c(C(C)C)cc(NC(=O)[C@@H](N)CO)cc2C(C)C)c(C(C)C)c1 [Example 230, [2-(2,4,6-Triisopropyl-phenyl)-acetyl]-sulfamic acid 4-((S)-2-amino-3-hydroxy-propionylamino)-2,6-diisopropyl-phenyl ester; compound with trifluoro-acetic acid]",75.2%
10,"CC(C)c1cc(C(C)C)c(CC(=O)NS(=O)(=O)Oc2c(C(C)C)cc(NC(=O)[C@@H](N)CCC(N)=O)cc2C(C)C)c(C(C)C)c1 [Example 231, [2-(2,4,6-Triisopropyl-phenyl)-acetyl]-sulfamic acid 4-((S)-2-amino-4-carbamoyl-butyrylamino)-2,6-diisopropyl-phenyl ester; compound with trifluoro-acetic acid]",78.1%
11,"CC(C)c1cc(C(C)C)c(CC(=O)NS(=O)(=O)Oc2c(C(C)C)cc(NC(=O)[C@@H](N)C(C)C)cc2C(C)C)c(C(C)C)c1 [Example 232, [2-(2,4,6-Triisopropyl-phenyl)-acetyl]-sulfamic acid 4-((S)-2-amino-3-methyl-butyrylamino)-2,6-diisopropyl-phenyl ester; compound with trifluoro-acetic acid]",76.9%
12,"CC(C)c1cc(C(C)C)c(CC(=O)NS(=O)(=O)Oc2c(C(C)C)cc(CO)cc2C(C)C)c(C(C)C)c1 [Example 233, [(2,4,6-Triisopropyl-phenyl)-acetyl]-sulfamic acid 4-hydroxymethyl-2,6-diisopropyl-phenyl ester]",76.9%
13,"CC(C)c1cc(C(C)C)c(CC(=O)NS(=O)(=O)Oc2c(C(C)C)cc(C(N)=O)cc2C(C)C)c(C(C)C)c1 [Example 234, [(2,4,6-Triisopropyl-phenyl)-acetyl]-sulfamic acid 4-carbamoyl-2,6-diisopropyl-phenyl ester]",76.7%
14,"CC(C)c1cc(C(C)C)c(CC(=O)NS(=O)(=O)Oc2c(C(C)C)cc(NC(=S)Nc3cc(Cl)cc(Cl)c3)cc2C(C)C)c(C(C)C)c1 [Example 235, [(2,4,6-Triisopropyl-phenyl)-acetyl]-sulfamic acid 4-[3-(3,5-dichloro-phenyl)-thioureido]-2,6-diisopropyl-phenyl ester]",146%
15,"C/C(=C\c1ccccc1)C(=O)NS(=O)(=O)Oc1c(C(C)C)cccc1C(C)C [Example 236, ((E)-2-Methyl-3-phenyl-acryloyl)-sulfamic acid 2,6-diisopropyl-phenyl ester]",79.4%
16,"CC(C)c1cccc(C(C)C)c1OS(=O)(=O)NC(=O)c1cc2ccccc2oc1=O [Example 237, (2-Oxo-2H-chromene-3-carbonyl)-sulfamic acid 2,6-diisopropyl-phenyl ester]",57.1%
17,"CCCCCCCCCCCCCCCCS(=O)(=O)NC(=O)Nc1c(C(C)C)cccc1C(C)C [Example 238, N-[2,6-bis(1-methylethyl)phenyl]-N′-(hexadecylsulfonyl)-urea]",12%
18,"CCOc1ccc2nc(S(=O)(=O)NC(=O)Nc3c(C(C)C)cccc3C(C)C)sc2c1 [Example 239, N-[2,6-bis(1-methylethyl)phenyl]-N′-[(6-ethoxy-2-benzothiazolyl)sulfonyl]-urea]",< 10%
19,"CCCCCCCCCCCCCCS(=O)(=O)NC(=O)Nc1c(C(C)C)cccc1C(C)C [Example 240, N-[2,6-bis(1-methylethyl)phenyl]-N′-(tetradecylsulfonyl)-urea]",10.3%
20,"CCCCCCCCCCCCCCS(=O)(=O)N(C)C(=O)Nc1c(C(C)C)cccc1C(C)C [Example 241, N′-[2,6-bis(1-methylethyl)phenyl]-N-methyl-N-(tetradecylsulfonyl)-urea]",< 10%
21,"CCCCCCCCCCCCCS(=O)(=O)NC(=O)Nc1c(C(C)C)cccc1C(C)C [Example 242, N-[2,6-bis(1-methylethyl)phenyl]-N′-(tridecylsulfonyl)urea]",< 10%
22,"CCCCCCCCC(c1ccccc1)S(=O)(=O)NC(=O)Nc1c(C(C)C)cccc1C(C)C (stereo not shown) [Example 243, N-[2,6-bis(1-methylethyl)phenyl]-N′-(1-phenyl-1-nonylsulfonyl)urea]",< 10%
23,"CCCCCCCCC(C)S(=O)(=O)NC(=O)Nc1c(C(C)C)cccc1C(C)C (stereo not shown) [Example 244, N-[2,6-bis(1-methylethyl)phenyl]-N′-(2-decylsulfonyl)urea]",< 10%
24,"CCCCCCCCCCCCCC(c1ccccc1)S(=O)(=O)NC(=O)Nc1c(C(C)C)cccc1C(C)C (stereo not shown) [Example 245, N-[2,6-bis(1-methylethyl)phenyl]-N′-(1-phenyl-1-tetradecylsulfonyl)urea]",16.1%
25,"CCCCCCCCCCCCCCCCC(C)S(=O)(=O)NC(=O)Nc1c(C(C)C)cccc1C(C)C (stereo not shown) [Example 246, N-[2,6-bis(1-methylethyl)phenyl]-N′-(2-octadecylsulfonyl)urea]",< 10%
26,"CCCCCCCCCCCCCCCCC(C)S(=O)(=O)NC(=O)Nc1c(OC)cc(OC)cc1OC (stereo not shown) [Example 247, N-[2,4,6-trimethoxyphenyl]-N′-(2-octadecylsulfonyl)urea]",14.8%
27,"CCCCCCCCCCCCCC(C)(C)S(=O)(=O)NC(=O)Nc1c(C(C)C)cccc1C(C)C [Example 248, N-[2,6-bis(1-methylethyl)phenyl]-N′-(2-methyl-2-pentadecylsulfonyl)urea]",11.4%
28,"CCCCCCCCCCCCCC(C)(C)S(=O)(=O)NC(=O)Nc1c(OC)cc(OC)cc1OC [Example 249, N-[2,4,6-trimethoxyphenyl]-N′-(2-methyl-2-pentadecylsulfonyl)urea]",< 10%

# Same assay, conditions: Homo sapiens; 10 μM compound; ECV-304 NF-κB.βlaZ cells stimulated with 10 ng/mL TNF-α or 100 pg/mL IL-1β, 6 hours at 37° C.; inhibition of maximum blue/green ratio; read-out: Percent Inhibition at 10 μM
row,Compound,inhibition at 10 µM
1,"CC(C)(C)c1cccc(C(C)(C)C)c1OC(=O)NS(=O)(=O)Nc1ccccc1Cc1ccccc1 [Example 221, Carbamic acid, [[[2-(phenylmethyl)phenyl]amino]sulfonyl]-, 2,6-bis(1,1-dimethylethyl)phenyl ester]",44.7%

# From patent publication US20020183384A1, “Methods of treating nuclear factor-kappa B mediated diseases and disorders” (priority 2001, published 2002)
